# Experimental data published in ChEMBL document CHEMBL1150467, “The identification of a novel renin inhibitor of equivalent efficacy following oral or intravenous administration” (Bioorg Med Chem Lett, 1994).
# pIC50: −log10 of the molar value.
# Target: T1, Renin (Homo sapiens, UniProt P00797)
# T1 sequence (P00797 whole entry): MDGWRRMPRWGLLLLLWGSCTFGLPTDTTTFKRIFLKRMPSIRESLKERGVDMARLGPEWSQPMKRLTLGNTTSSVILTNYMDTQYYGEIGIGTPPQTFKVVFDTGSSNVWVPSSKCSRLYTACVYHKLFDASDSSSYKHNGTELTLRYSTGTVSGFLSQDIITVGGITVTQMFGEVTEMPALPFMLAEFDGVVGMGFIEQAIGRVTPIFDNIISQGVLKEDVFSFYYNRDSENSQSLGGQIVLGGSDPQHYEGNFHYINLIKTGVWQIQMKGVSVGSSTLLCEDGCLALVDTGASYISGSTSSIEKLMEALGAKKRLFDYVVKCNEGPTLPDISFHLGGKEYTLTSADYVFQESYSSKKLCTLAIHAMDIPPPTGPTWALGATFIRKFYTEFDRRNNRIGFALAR
# Assay: […]
# Type: cell-free, Plasma
row,Structure (SMILES),pIC50
1,CC(C)CCNC(=O)C[C@H](O)[C@H](CC1CCCCC1)NC(=O)[C@H](CC(C)C)NC(=O)[C@H](Cc1ccccc1)NC(=O)CC1CS(=O)(=O)c2ccccc21 (some centres not stated),8.00
2,CC(C)C[C@H](NC(=O)[C@H](Cc1ccccc1)NC(=O)CCCN1C(=O)CSc2ccncc21)C(=O)N[C@@H](CC1CCCCC1)[C@@H](O)CC(=O)NCCCn1ccnc1,7.85
3,CC(C)C[C@H](NC(=O)[C@H](Cc1ccccc1)NC(=O)CC1CS(=O)(=O)c2ccccc21)C(=O)N[C@@H](CC1CCCCC1)[C@@H](O)CC(=O)NCCCc1cccnc1 (some centres not stated),7.47
4,CC(C)C[C@H](NC(=O)[C@H](Cc1ccccc1)NC(=O)CCN1C(=O)COc2ccncc21)C(=O)N[C@@H](CC1CCCCC1)[C@@H](O)CC(=O)NCCCn1ccnc1,7.70
5,CC(C)C[C@H](NC(=O)[C@H](Cc1ccccc1)NC(=O)CC1CS(=O)(=O)c2ccccc21)C(=O)N[C@@H](CC1CCCCC1)[C@@H](O)CC(=O)NCCCn1ccnc1 (some centres not stated),7.92

# Next, values leading:
row,pIC50,Structure (SMILES)
1,7.39,CC(C)C[C@H](NC(=O)[C@H](Cc1ccccc1)NC(=O)CC1CS(=O)(=O)c2ccccc21)C(=O)N[C@@H](CC1CCCCC1)[C@@H](O)CC(=O)NCCn1ccnc1 (some centres not stated)
2,8.40,CC(C)C[C@H](NC(=O)[C@H](Cc1ccccc1)NC(=O)CCN1C(=O)CSc2cnccc21)C(=O)N[C@@H](CC1CCCCC1)[C@@H](O)CC(=O)NCCCn1ccnc1
3,8.10,CC(C)C[C@H](NC(=O)[C@H](Cc1ccccc1)NC(=O)CCN1C(=O)CS(=O)(=O)c2ccncc21)C(=O)N[C@@H](CC1CCCCC1)[C@@H](O)CC(=O)NCCCn1ccnc1
4,7.02,CC(C)C[C@H](NC(=O)[C@H](Cc1ccccc1)NC(=O)CC1CS(=O)(=O)c2ccccc21)C(=O)N[C@@H](CC1CCCCC1)[C@@H](O)CC(=O)NCCCN(C)C (some centres not stated)
5,6.77,CC(C)C[C@H](NC(=O)[C@H](Cc1ccccc1)NC(=O)CC1CS(=O)(=O)c2ccccc21)C(=O)N[C@@H](CC1CCCCC1)[C@@H](O)CC(=O)NCCN1CCOCC1 (some centres not stated)
6,7.26,CC(C)C[C@H](NC(=O)[C@H](Cc1ccccc1)NC(=O)CC1CS(=O)(=O)c2ccccc21)C(=O)N[C@@H](CC1CCCCC1)[C@@H](O)CC(=O)NCCCC(=O)O (some centres not stated)
7,7.42,CC(C)C[C@H](NC(=O)[C@H](Cc1ccccc1)NC(=O)CN1C(=O)CSc2ccncc21)C(=O)N[C@@H](CC1CCCCC1)[C@@H](O)CC(=O)NCCCn1ccnc1
